From patent US10472353B2, “Salt and crystal forms of PLK-4 inhibitor” (University Health Network, priority 2013, dated 2019)
Structures can show the parent of a compound that is named as a salt. Where two headings read alike, the source gives them in different places.

Key:
[1] = Pharmacokinetics after single oral dose, powder in capsule, plasma levels of compound (I) by LC/MS; format: in vivo, female Sprague-Dawley rats; details: Sprague-Dawley rats
Protocol: A single oral dose in solution and as powder in capsule of the HCl salt of (I), fumarate form D and maleate form A were administered to female Sprague-Dawley rats at 5 mg/kg. Blood samples were collected in the presence of lithium heparin, and were centrifuged to generate plasma. The plasma was then analyzed for compound (I) plasma levels by LC/MS.
All animals involved in the dosing schedule were weighed and assigned numbers. All capsules (Size 9 porcine hard gelatin capsules, Torpac) corresponding with each animal to be dosed were carefully numbered with a fine tip Sharpie. A small plastic weighing dish was placed on the scale, with one capsule lid placed on the dish and the base of the capsule loader with the other part of the capsule was loaded in the reservoir. The balance was tared. A funnel was placed on top of the capsule loading apparatus and the total mass was carefully noted. A piece of 4″×4″ wax paper was folded in half creating a crease down the median. A small amount of finely ground compound (Ground the compound if required using mortar and pestle) was deposited in the crease of the wax paper and refolded. The folded wax paper was gently angled over the capsule loader funnel apparatus. A fine scapula was used to tease an amount of compound powder out of the crease onto the funnel allowing it to trickle into the loading bay and ultimately the capsule. The difference in mass from the total mass was noted. The capsule loading funnel was removed and the balance door closed to ascertain the absolute weight of compound inside the capsule. The funnel was returned to the capsule loading apparatus and loading continued until the desired amount of drug was inside the capsule. Note: When adding minute quantities to the capsule, simply brushed fine powered drug that settled on the funnel into the loading column. The funnel was removed and the weight was recorded. Calculated the amount of actual drug by multiplying weighed material by the bioequivalence ratio. The amount of actual drug was recorded. The capsule lid on the weighing dish was used to close the capsule tightly until it clicked into place.
All animals (n=3/group) were dosed orally in a volume of 5 mL/kg. Following dosing, each rat was bled at each of the designated time points. For control animals, blood was collected by the same procedure. Blood was collected from the lateral saphenous vein. Blood aliquots (˜50 μL) were collected in tubes coated with lithium heparin, mixed gently, then kept on ice and centrifuged at 2,500×g for 15 minutes at RT, within 1 hour of collection. The plasma layer was collected, kept on ice and finally maintained frozen at −80° C. until further processing.
Bioanalytical quantitation using HPLC/tandem quadruple mass spectrometry (HPLC-MS) was performed. Plasma concentrations and […] were calculated and reported.
A 5 mg/mL standard solution in DMSO was diluted 100 fold and subsequently serial diluted in 50% DMSO. Aliquots (2 μL) of the serial dilutions were mixed with 18 μL of control plasma (20 μL total) for use as a standard curve. Plasma samples (20 μL) and standard samples were then diluted 5× with ice cold acetonitrile containing 100 ng/mL verapamil as internal standard (80% (v/v) acetonitrile). Acetonitrile precipitated samples and standards were filtered through 0.22 μm membranes in a 96-well format. Filtrates were then diluted with water to 30% acetonitrile.
LC: 10 μL of each sample and standard were injected onto a Waters Acquity CSH 1.7 μm 2.1×100 mm column at 0.6 mL/min by an Acquity UPLC. The C18 column was equilibrated at 10% acetonitrile. Compounds were eluted with a gradient to 99% acetonitrile. All mobile phases contained 0.1% (v/v) formic acid.
MS: Column eluent was analyzed by electrospray ionization into a tandem quadrupole mass spec system (Waters Xevo TQ). Eluent composition was analyzed for three ion-pairs specific for the internal standard and three ion-pairs specific for the analyte. […]

[2] = Gravimetric moisture sorption (dynamic vapour sorption, 25° C.); format: physicochemical; details: for Gravimetric Moisture Sorption: 25° C.
Protocol: Gravimetric moisture sorption experiments were carried out on a Hiden dynamic vapour sorption analyzer by first holding the sample at 40% RH and 25° C. until an equilibrium weight was reached or for a maximum of four hours. The sample was then subjected to an isothermal (25° C.) adsorption scan from 40 to 90% RH in steps of 10%. The sample was allowed to equilibrate to an asymptotic weight at each point for a maximum of four hours. Following adsorption, a desorption scan from […] RH (at 25° C.) was run in steps of −10% again allowing a maximum of four hours for equilibration to an asymptotic weight. An adsorption scan was then performed from 0% RH to 40% RH in steps of +10% RH.

[3] = Solubility in deionized water; format: physicochemical
[4] = Differential scanning calorimetry, phase transition of the polymorphs; format: physicochemical
Protocol: DSC analyses were carried out on a Mettler 822e differential scanning calorimeter or a TA instruments Q2000. Samples were weighed in an aluminum pan, covered with a pierced lid, and then crimped. Analysis conditions were 30-120, 30-200, 30-300° C. and 40-300° C. ramped at 10° C./min.
Form D can be directly prepared as follows: A 250-mL three neck RBF equipped with a stir bar was charged with compound (I) (6.01 g, 11 mmol) and fumaric acid (1.41 g, 12 mmol). Acetone (50 mL) was added and the slurry was heated to 50° C. until the solution became clear. Precipitation was observed after 10 min, and stirring was continued for an additional 30 min. MTBE (25 mL) was added and the solution was cooled to rt and stirred overnight. The solids were filtered and dried under vacuum at 60° C. for 2 d to give the title compound (I) as a white solid (6.65 g, 91%).

## COc1ccc2c(c1)[C@]1(C[C@H]1c1ccc3c(/C=C/c4ccc(CN5C[C@@H](C)O[C@@H](C)C5)cc4)n[nH]c3c1)C(=O)N2 [Maleate (form A)]
[1]; 5.0 mg/kg
  AUC0-tlast: 1500 ng·h/mL
  Cmax: 200 ng/mL
[2]; 60% RH, listed as Maleate A
  Gravimetric Moisture Sorption: 1.3 wt %, 60% RH
[2]; 90% RH, listed as Maleate A
  Gravimetric Moisture Sorption: 2.2 wt %, 90% RH

## COc1ccc2c(c1)[C@]1(C[C@H]1c1ccc3c(/C=C/c4ccc(CN5C[C@@H](C)O[C@@H](C)C5)cc4)n[nH]c3c1)C(=O)N2 [Phosphate]
[3]
  Solubility in DI water: ≥100 mg/mL
[2]; 60% RH
  Gravimetric Moisture Sorption: 6.1 wt % 60% RH
[2]; 90% RH
  Gravimetric Moisture Sorption: 10.9 wt % 90% RH

## COc1ccc2c(c1)[C@]1(C[C@H]1c1ccc3c(/C=C/c4ccc(CN5C[C@@H](C)O[C@@H](C)C5)cc4)n[nH]c3c1)C(=O)N2 [HCl]
[1]; female, Sprague-Dawley, rat, plasma, po, 5 mg/kg, read-out: AUC0-tlast
  AUC(0-t): 2400 ng·h/mL
[1]; female, Sprague-Dawley, rat, plasma, po, 5 mg/kg, read-out: Cmax
  Cmax: 250 ng/mL
[3]
  Solubility in DI water: ≥100 mg/mL

## COc1ccc2c(c1)[C@]1(C[C@H]1c1ccc3c(/C=C/c4ccc(CN5C[C@@H](C)O[C@@H](C)C5)cc4)n[nH]c3c1)C(=O)N2 [1:1 compound (I) maleate]
[2]
  Hygroscopicity (in words): non-hygroscopic

## COc1ccc2c(c1)[C@]1(C[C@H]1c1ccc3c(/C=C/c4ccc(CN5C[C@@H](C)O[C@@H](C)C5)cc4)n[nH]c3c1)C(=O)N2 [Fumarate C]
[3]
  Solubility in DI water: 0.625 mg/mL

## COc1ccc2c(c1)[C@]1(C[C@H]1c1ccc3c(/C=C/c4ccc(CN5C[C@@H](C)O[C@@H](C)C5)cc4)n[nH]c3c1)C(=O)N2 [1:1 Compound (I) fumarate]
[2]
  Hygroscopicity (in words): non-hygroscopic

## COc1ccc2c(c1)[C@]1(C[C@H]1c1ccc3c(/C=C/c4ccc(CN5C[C@@H](C)O[C@@H](C)C5)cc4)n[nH]c3c1)C(=O)N2 [Fumarate (form D)]
[1]; 5.0 mg/kg
  AUC0-tlast: 2780 ng·h/mL
  Cmax: 270 ng/mL
[4]
  Stability among the four fumarate polymorphs (phase transition by DSC): highest stability
[3]; listed as Fumarate D
  Solubility in DI water: 0.17 mg/mL
[2]; 60% RH, listed as Fumarate D
  Gravimetric Moisture Sorption: 2.1 wt % 60% RH
[2]; 90% RH, listed as Fumarate D
  Gravimetric Moisture Sorption: 4.0 wt % 90% RH

## COc1ccc2c(c1)[C@]1(C[C@H]1c1ccc3c(/C=C/c4ccc(CN5C[C@@H](C)O[C@@H](C)C5)cc4)n[nH]c3c1)C(=O)N2 [Fumarate B]
[2]; 60% RH
  Gravimetric Moisture Sorption: 3.7 wt % 60% RH
[2]; 90% RH
  Hydrate formed on moisture sorption: tetrahydrate
  Gravimetric Moisture Sorption: 10.5 wt % 90% RH
[2]; listed as Form B
  Hygroscopicity (in words): hygroscopic
